These results are taken from paper PMC6727040, “Identification of a Novel Functional Corticotropin-Releasing Hormone (CRH2) in Chickens and Its Roles in Stimulating Pituitary TSHβ Expression and ACTH Secretion” (Frontiers in Endocrinology, 2019).

Entries after “also recorded” stand apart in the source; their conditions may differ. Ends that are not written are not given here. Peptide text beside a SMILES is read from it.

The target of one test is T1, chicken CRHR1 (cCRHR1) (Gallus gallus, UniProt Q90812).
T1 construct: expressed in transfected cells; host or cells: CHO cells, transient transfection (the control used the empty pcDNA3.1(+) vector)
T1 sequence (Q90812 29-420): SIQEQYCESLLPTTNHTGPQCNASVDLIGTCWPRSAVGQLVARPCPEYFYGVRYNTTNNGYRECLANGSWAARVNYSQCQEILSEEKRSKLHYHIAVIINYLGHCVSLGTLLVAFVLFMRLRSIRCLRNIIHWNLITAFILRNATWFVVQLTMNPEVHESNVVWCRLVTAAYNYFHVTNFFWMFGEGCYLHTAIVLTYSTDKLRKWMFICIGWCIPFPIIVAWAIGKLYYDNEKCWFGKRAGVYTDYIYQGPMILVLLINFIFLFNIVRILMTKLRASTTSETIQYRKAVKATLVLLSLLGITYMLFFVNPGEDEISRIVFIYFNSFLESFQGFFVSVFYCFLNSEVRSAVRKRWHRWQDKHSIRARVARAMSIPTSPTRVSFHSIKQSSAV
As to the kind of experiment: pGL3-CRE-luciferase reporter assay in CHO cells expressing cCRHR1. Particulars: CHO cells transiently expressing cCRHR1; peptide 10^−12-10^−6M, 6 h; luciferase as fold of untreated control; N = 3 replicates. Format: cell-based. How it is done: CHO cells were cultured in Dulbecco's Modified Eagle's Medium (DMEM) supplemented with 10% (vol/vol) fetal bovine serum, 100 U/ml penicillin G, and 100 µg/ml streptomycin (HyClone) in a 100 mm dish (Corning) and incubated at 37°C with 5% CO2. As described in our previous study ([35]), the functionality of cCRH2 was examined in CHO cells transiently expressing CRHR1 or CRHR2 by the pGL3-CRE-luciferase reporter system, which was utilized to monitor receptor-mediated activation of the intracellular cAMP/PKA signaling pathway. The luciferase activities in each treatment group were expressed as relative fold increase as compared with that of respective control groups (i.e., without peptide treatment).

A further test has as its system chicken pituitary. Particulars: cited from earlier work. The source says: (§1) The relatively high potency of cCRH2 in activating cCRHR2 led us to examine whether like cCRH, cCRH2 can stimulate TSH expression in the chicken pituitary (Figure 8). […] Our finding raises a new concept that apart from CRH, TRH and GCG-like peptide (GCGL) [which are re ...
The test system of a further test is CRHR1 and CRHR2. As to conditions: cited from earlier work. The source says:
It has been well-documented that the roles of CRH-related peptides are mediated by two G protein-coupled receptors, namely CRH receptor 1 (CRHR1) and CRH receptor 2 (CRHR2), which share ~68% amino acid identity with each other ([6], [21], [23]). However, these neuropeptides have distinct preference for these two receptors.

Test [1] deals with pituitary. As to conditions: cited from earlier work. The source says: However, UCN1 expression could not be detected in the hypothalamus and pituitary stalk ([10], [11]), and the selective receptors for UCN2 and UCN3 were not detected in the pituitary ([12]–[14]), hinting that the actions of ...
In test [2] the test system is pituitary. Particulars: cited from earlier work.
Text: as §1
This is another data set of the same source.

In turn, `CC[C@H](C)[C@H](NC(=O)[C@H](CO)NC(=O)[C@H](CCC(N)=O)NC(=O)[C@H](CC(C)C)NC(=O)[C@H](CC(C)C)NC(=O)[C@H](CC(C)C)NC(=O)[C@H](CCCCN)NC(=O)[C@H](CC(N)=O)NC(=O)[C@H](CO)NC(=O)[C@H](CC(C)C)NC(=O)[C@H](C)NC(=O)[C@H](CCCCN)NC(=O)[C@H](CCC(N)=O)NC(=O)[C@H](C)NC(=O)[C@H](CC(C)C)NC(=O)[C@H](CCCNC(=N)N)NC(=O)[C@H](CCC(=O)O)NC(=O)[C@H](CCC(=O)O)NC(=O)[C@H](CCCNC(=N)N)NC(=O)[C@H](CO)NC(=O)[C@H](CCSC)NC(=O)[C@H](CCC(=O)O)NC(=O)[C@H](CC(C)C)NC(=O)[C@H](Cc1ccccc1)NC(=O)[C@H](CCC(=O)O)NC(=O)[C@H](CCCNC(=N)N)NC(=O)[C@H](CC(C)C)NC(=O)[C@H](CC(C)C)NC(=O)[C@H](Cc1c[nH]cn1)NC(=O)[C@H](Cc1ccccc1)NC(=O)[C@@H](NC(=O)[C@H](CC(C)C)NC(=O)[C@H](CC(=O)O)NC(=O)[C@H](CC(C)C)NC(=O)[C@H](CO)NC(=O)[C@H](CC(N)=O)NC(=O)[C@@H]1CCCN1C(=O)[C@H](CCCCN)NC(=O)CNC(=O)[C@@H](N)CCC(=O)O)[C@@H](C)O)C(N)=O` [cCRH2] (H-EGKPNSLDLTFHLLREFLEMSREERLAQKALSNKLLLQSI-NH2) gave a concentration giving a half-maximal response (EC50) at chicken CRHR1 (cCRHR1) of 0.0286 µM.

Regarding GCG-like peptide [GCGL], the “chicken pituitary TSH expression/secretion (in words)” value in the test on chicken pituitary was “reported to stimulate chicken pituitary TSH expression/secretion”.

On chicken CRHR1 (cCRHR1), `CC[C@H](C)[C@H](NC(=O)[C@@H](NC(=O)[C@H](CCC(=O)O)NC(=O)[C@H](CCSC)NC(=O)[C@H](CC(C)C)NC(=O)[C@H](CCCCN)NC(=O)[C@H](CCCNC(=N)N)NC(=O)[C@H](CC(N)=O)NC(=O)[C@H](CO)NC(=O)[C@H](Cc1c[nH]cn1)NC(=O)[C@H](C)NC(=O)[C@H](CCC(N)=O)NC(=O)[C@H](CCC(N)=O)NC(=O)[C@H](C)NC(=O)[C@H](CC(C)C)NC(=O)[C@H](CCC(N)=O)NC(=O)[C@H](CCC(=O)O)NC(=O)[C@H](C)NC(=O)[C@H](CCCNC(=N)N)NC(=O)[C@H](C)NC(=O)[C@H](CCSC)NC(=O)[C@H](CCC(=O)O)NC(=O)[C@H](CC(C)C)NC(=O)[C@@H](NC(=O)[C@H](CCC(=O)O)NC(=O)[C@H](CCCNC(=N)N)NC(=O)[C@H](CC(C)C)NC(=O)[C@H](CC(C)C)NC(=O)[C@H](Cc1c[nH]cn1)NC(=O)[C@H](Cc1ccccc1)NC(=O)[C@@H](NC(=O)[C@H](CC(C)C)NC(=O)[C@H](CC(=O)O)NC(=O)[C@H](CC(C)C)NC(=O)[C@H](CO)NC(=O)[C@@H](NC(=O)[C@@H]1CCCN1C(=O)[C@@H]1CCCN1C(=O)[C@H](CCC(=O)O)NC(=O)[C@H](CCC(=O)O)NC(=O)[C@@H](N)CO)[C@@H](C)CC)[C@@H](C)O)C(C)C)[C@@H](C)CC)C(N)=O` [cCRH] returned a concentration giving a half-maximal response (EC50) of 0.0003 µM.

For “urocortin III (FTLSLDVPTNIMNLLFNIAKAKNLRAQAAANAHLMAQI; ends and bridges not checked; UniProt Q969E3 120-157, looked up) [UCN3, CRH family peptide urocortin III]”, in the test on CRHR1 and CRHR2, the “affinity/selectivity for CRHR1 and CRHR2 (in words)” value (“affinity/selectivity” below) is listed as “highly selective for CRHR2”.

Take corticotropin-releasing hormone [CRH]: the “ACTH secretion and synthesis from the pituitary (in words)” value in the test on pituitary [1] is “stimulates adrenocorticotropic hormone (ACTH) secretion and synthesis from the pituitary”. Moreover, in the test on CRHR1 and CRHR2, the “activation of both CRH receptors in chickens (in words)” value was “equipotent activation of both receptors; also recorded: equipotent in activating both receptors”. Further, in the test with CRHR1 and CRHR2 (mammals, Xenopus and zebrafish), the “affinity for CRHR1 versus CRHR2 (in words)” value is given as “higher affinity to CRHR1 than to CRHR2”. The “pituitary TSH secretion and/or expression (in words)” value in the test on pituitary [2] (non-mammalian vertebrates, including birds, amphibians and reptiles) is given as “elevate pituitary thyroid stimulating hormone (TSH) secretion and/or expression”. The “pituitary TSH secretion and synthesis (in words)” value in the test on pituitary [2] (some non-mammalian vertebrates including chickens) is “responsible for stimulating pituitary TSH secretion and synthesis”.

As for “urocortin I (DNPSLSIDLTFHLLRTLLELARTQSQRERAEQNRIIFDSV; ends and bridges not checked; UniProt P55089 83-122, looked up) [UCN1, CRH family peptide urocortin I]”, in the test with pituitary [1] (in vitro), the “ACTH-releasing activity in vitro (in words)” value is reported as “potent ACTH-releasing activity in vitro”. In the test with CRHR1 and CRHR2, the “affinity/selectivity” value is on record as “binds to them with similar affinities”.

As to “urocortin II (IVLSLDVPIGLLQILLEQARARAAREQATTNARILARVGHC; Urocortin-2; UniProt Q96RP3 72-112, looked up) [UCN2, CRH family peptide urocortin II]”, the “affinity/selectivity” value with CRHR1 and CRHR2 is recorded as “highly selective for CRHR2”.
